# Reference: US11260129B2, “Phosphor-containing drug activator, suspension thereof, system containing the suspension, and methods for use” (IMMUNOLIGHT, LLC, priority 2016, dated 2022)
# Experiments:
# 4T1-HER2 cells [1] = assay: Cell viability by Guava flow cytometry (FIG. 13A); type: cell-based, murine; settings: UVADEX alone, 1 Gy 80 kVp; p=0.97
# Experimental: In-vitro studies were conducted on plated cells following standard procedures. Cells were maintained in RPMI-1640 supplemented with 10% fetal bovine serum and L-glutamine from GIBCO (Grand Island, N.Y.) growing in a humidified atmosphere of 5% CO2. After incubation, cells were trypsinized and plated evenly onto twelve 12-well plates for 24 hours. About 20 minutes prior to irradiation, the 12 wells of each plate were exposed to the following combinations of additives: […] Each plate had 12 wells with three wells for each of the four treatment arms. The plates were then irradiated with x-rays by placing the plate at a known distance from the x-ray source (50 cm). After irradiation, the cells were incubated on the plate for 48 hours prior to performing flow cytometry. For compatibility with 96-well Guava Nexin® assay, the remaining cells were again trypsinized. […] Two primary flow cytometry analyses were used, both determined at 48 hours after treatment. […] The first analysis evaluated was metabolic cell viability (herein referred to as cell viability) calculated from the number of whole cells per well as determined using forward scattering (ESC). […] In FIG. 13A, cell viability after treatment (10 μM 8-MOP equivalent dilution of UVADEX, 50 μg/mL phosphor, 1 Gy of 80 kVp radiation) as determined by Guava flow cytome cytometry is depicted. […]
# 4T1-HER2 cells [2] = assay: Methylene blue staining for cell viability; type: cell-based, murine; settings: individual components, 1 Gy of 80 kVp x-rays
# Experimental: A plate having six (6) wells is subjected to treatment. FIG. 11 is a photographic depiction showing of Methylene Blue stain for cell viability post treatment with X-ray, phosphors and UVADEX. One well (#1) is the control. One well (#2) has phosphor coated with EC and DLC (H100). One well (#3) has phosphor coated with EC (but no DLC).
# FIGS. 13A-13D illustrates the efficacy of treatment in-vitro in 4T1-HER2 cells, utilizing a regimen of 1/10-diluted UVADEX (with equivalent of 10 uM 8-MOP), 50 μg/mL phosphor 1 Gy of 80 kVp x-rays. […] Two results from two separate plates are shown, each with identical preparations to investigate reproducibility. Three concentrations of phosphor (25, 50, & 100 μg/mL) were tested with the UVADEX concentration fixed at 1/10 dilution (10 uM 8-MOP). […] In FIGS. 13A-13D, the anti-tumor effects of the treatment and its individual components on 4T1-HER2 cells. […] In FIGS. 13C and 13D, cell viability illustrated by methyl blue staining for identical plates each receiving 1 Gy of 80 kVp x-rays is depicted. […]
# 4T1-HER2 cells [3] = assay: Annexin V positivity by flow cytometry (FIGS. 13B, 15, 16); type: cell-based, murine; settings: UVADEX alone, with or without x-ray (p 0.90 and 0.09)
# Experimental: In-vitro studies were conducted on plated cells following standard procedures. Cells were maintained in RPMI-1640 supplemented with 10% fetal bovine serum and L-glutamine from GIBCO (Grand Island, N.Y.) growing in a humidified atmosphere of 5% CO2. After incubation, cells were trypsinized and plated evenly onto twelve 12-well plates for 24 hours. About 20 minutes prior to irradiation, the 12 wells of each plate were exposed to the following combinations of additives: […] Each plate had 12 wells with three wells for each of the four treatment arms. The plates were then irradiated with x-rays by placing the plate at a known distance from the x-ray source (50 cm). After irradiation, the cells were incubated on the plate for 48 hours prior to performing flow cytometry. […] (after the 48 hour incubation) and plated onto the 96-well plate, Two primary flow cytometry analyses were used, both determined at 48 hours after treatment. […] The first analysis evaluated was metabolic cell viability (herein referred to as cell viability) calculated from the number of whole cells per well as determined using forward scattering (ESC). […] In FIG. 13A, cell viability after treatment (10 μM 8-MOP equivalent dilution of UVADEX, 50 μg/mL phosphor, 1 Gy of 80 kVp radiation) as determined by Guava flow cytome cytometry is depicted. […]
# [4] = test system: CT2A (murine malignant glioma); assay: Cell-Titer-Glo Luminescence Cell Viability Assay, UV activated psoralen (FIG. 14A); type: cell-based; settings: psoralen 40 μM; UV light 0, 0.25, 0.5, 1.0 J/cm2; N=4
# From the text: (§1) Other assays were used to provide independent complimentary information on cell viability, e.g. Methylene blue staining and ATP-induced Luminescence imaging (Cell-Titer-Glo® Luminescence Cell Viability Assay). The luminescence imaging permitted investigation of the cytotoxicity of psoralen activated directly with a UV lamp, and in the absence of phosphors and x-ray radiation.
# (§2) FIG. 14B presents data on CT2A malignant glioma cells, for a range of treatment parameters including variable x-ray dose (0, 0.67 and 1 Gy). phosphor concentration (50 or 100 μg) and psoralen concentration (8-MOP) at 10, 20 and 40 μM respectively. […] N=4 for each cell line at each UV light condition (0, 0.25, 0.5, 1.0 J/cm2). The psoralen concentration was 40 μM. For FIG. 14B, in CT2A cells, the treatment cytotoxicity increases with X-ray dose (0, 0.67 and 1.00 Gy respectively), concentration of 8-MOP psoralen (10, 20 and 40 μM respectively), and phosphor (50 and 100 μg/ml) respectively (p values shown thereon).
# 4T1 = assay: as above; type: cell-based, murine; settings: psoralen 40 μM; UV light 0, 0.25, 0.5, 1.0 J/cm2; N=4
# From the text: as §1, §2
# KP-B (sarcoma) = assay: as above; type: cell-based, murine; settings: psoralen 40 μM; UV light 0, 0.25, 0.5, 1.0 J/cm2; N=4
# From the text: as §1, §2
structure (smiles),measurement,setting,value
"COc1c2occc2cc2ccc(=O)oc12 [UVADEX, 8-methoxypsoralen]",effect of addition of radiation on cell viability,4T1-HER2 cells [1],no significant effect
same,"effect in methyl blue staining (FIGS. 13C, 13D)",4T1-HER2 cells [2],little effect
same,apoptotic activity (Annexin V),4T1-HER2 cells [3],negligible apoptotic activity
O=c1ccc2cc3ccoc3cc2o1 [psoralen],viable cells,[4],reduce viable cells
same,viable cells,4T1,reduce viable cells
same,viable cells,KP-B (sarcoma),reduce viable cells
